Laboratory results taken from patent publication US8541584B2, “3-(1,2,3-triazol-4-yl) pyrrolo [2,3-b] pyridine derivatives” (Merck Patent GmbH, priority 2009, dated 2013).

What was measured:
PDK1 = target: T1, PDK1 (Homo sapiens, UniProt O15530); experiment: Test for the inhibition of PDK1 (384-well flashplate, 33P-ATP); assay type: biochemical; conditions: His6-PDK1 3.4 nM, 4 μM ATP, 30° C., 60 min
T1 construct: His6 (N)
T1 sequence (O15530 51-556 limits assumed): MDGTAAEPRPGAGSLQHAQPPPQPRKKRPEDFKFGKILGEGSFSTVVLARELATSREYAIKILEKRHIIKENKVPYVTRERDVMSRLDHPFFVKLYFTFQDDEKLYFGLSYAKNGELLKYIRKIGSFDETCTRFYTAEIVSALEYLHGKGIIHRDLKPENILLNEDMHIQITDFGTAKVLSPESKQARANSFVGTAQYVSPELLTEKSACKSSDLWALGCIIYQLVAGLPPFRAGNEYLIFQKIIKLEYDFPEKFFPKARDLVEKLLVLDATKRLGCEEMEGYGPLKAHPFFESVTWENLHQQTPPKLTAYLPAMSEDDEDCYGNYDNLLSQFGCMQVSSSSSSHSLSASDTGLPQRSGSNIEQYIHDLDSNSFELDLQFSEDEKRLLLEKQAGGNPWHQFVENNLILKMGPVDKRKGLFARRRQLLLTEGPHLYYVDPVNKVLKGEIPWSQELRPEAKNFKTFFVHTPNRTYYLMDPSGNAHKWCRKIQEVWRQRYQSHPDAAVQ
Description: 4.0 Test for the Inhibition of PDK1
The experimental batches are carried out in a flashplate system with 384 wells/microtitration plate.
In each case, the PDK1 sample His6-PDK1(1-50)(3.4 nM), the PDK1 substrate biotin-bA-bA-[…] (400 nM), 4 μM ATP (with 0.2 μCi of ^33P-ATP/well) and the test substance in 50 μl of conventional experimental solution per well are incubated at 30° C. for 60 min. The test substances are employed in corresponding concentrations (if desired in a dilution series). The control is carried out without test substance. The reaction is stopped using standard methods and washed. The activity of the kinase is measured via the incorporated radioactivity in top count. In order to determine the non-specific kinase reaction (blank value), the experimental batches are carried out in the presence of 100 nM staurosporin.
The radioactivity (decompositions per minute) of the blank value (no use of test substance in the presence of staurosporin) is subtracted from all other radioactivity values. The controls (kinase activity without test substance) are set equal to 100 percent and all other radioactivity values (after subtracting the blank value) are expressed set in relation thereto (for example in % of the control).
IC50 values (50% inhibition) are determined with the aid of statistics programmes, such as, for example, RS1.

[1] = test system: PDK1 kinase activity (P-T308-PKB) in PC3 cells; experiment: Cellular testing of PDK1 kinase inhibitors (Luminex assay, P-T308-PKB in PC3 cells); assay type: cell-based; conditions: Homo sapiens, PC-3, 0.5 h, serum-free, 30 min with test substance
Description: Description of the Method for Cellular Testing of PDK1 Kinase Inhibitors
The cellular assay for determination of the PDK1 kinase activity is performed as Luminex assay in the 96-well format. PC3 cells are sown at 20,000 cells per well in 100 μl of medium (45% of […]/45% of Ham's F12/10% of FCS) and incubated under serum-free conditions on the following day for 30 min with serial dilution of the test substance (7 concentrations). The cells are subsequently lysed using 90 μl of lysis buffer (20 mM Tris/HCl pH 8.0, 150 mM NaCl, 1% of NP40, 10% of glycerol, 1% of phosphatase inhibitor I, 1% of phosphatase inhibitor II, 0.1% of protease inhibitor Cocktail III, 0.01% of benzonase) per well, and the lysates are separated off from insoluble cell constituents by means of centrifugation through a 96-well filter plate (0.65 μm). The lysates are incubated overnight at 4° C. with shaking with Luminex beads to which an anti-total PKB antibody has been coupled. Detection is carried out on the following day by addition of a P-T308-PKB antibody and a species-specific PE-labelled secondary antibody. The determination of P-T308-PKB is carried out by measurement in the Luminex100 instrument by determination of 100 events per cavity in a measurement time of 60 sec. As pharmacological blank, the signals obtained from cells which have been treated with 10 μM staurosporin are subtracted from all other batches. The control value used for maximum phosphorylation of PKB on T308 are the signals from cells which have been treated only with the solvent (0.3% of DMSO). The values of the batches treated with test substance are calculated from this as percent of control, and IC50 values are determined by means of RS1.

IC50 (PDK1) [nM]	IC50 [1] [nM]	SMILES
0.5 to 1000	1000 to 10000	Cn1cc(-c2cnc3[nH]cc(-c4cn(Cc5ccc(F)cc5F)nn4)c3c2)cn1 [Compound A21, 3-[1-(2,4-Difluorobenzyl)-1H-1,2,3-triazol-4-yl]-5-(1-methyl-1H-pyrazol-4-yl)-1H-pyrrolo-[2,3-b]pyridine]
0.5 to 1000	0.5 to 1000	Cn1cc(-c2cnc3[nH]cc(-c4cn(Cc5cccc(Cl)c5F)nn4)c3c2)cn1 [Compound A23, 3-[1-(3-Chloro-2-fluorobenzyl)-1H-1,2,3-triazol-4-yl]-5-(1-methyl-1H-pyrazol-4-yl)-1H-pyrrolo[2,3-b]pyridine]
0.5 to 1000	1000 to 10000	CC(c1ccccc1)n1cc(-c2c[nH]c3ncc(-c4cnn(C)c4)cc23)nn1 (centres unmarked) [Compound A8, 5-(1-methyl-1H-pyrazol-4-yl)-3-[1-(1-phenylethyl)-1H-1,2,3-triazol-4-yl]-1H-pyrrolo[2,3-b]pyridine]
	0.5 to 1000	Cn1cc(-c2cnc3[nH]cc(-c4cn(Cc5ccccc5C#N)nn4)c3c2)cn1 [Compound A38, 2-{4-[5-(1-Methyl-1H-pyrazol-4-yl)-1H-pyrrolo[2,3-b]pyridin-3-yl]-1,2,3-triazol-1-yl-methyl}benzonitrile]
0.5 to 1000		CC(c1ccc(C(=O)O)cc1)n1cc(-c2c[nH]c3ncc(-c4cnn(C)c4)cc23)nn1 (centres unmarked) [Compound A27, 4-(1-{4-[5-(1-Methyl-1H-pyrazol-4-yl)-1H-pyrrolo[2,3-b]pyridin-3-yl]-1,2,3-triazol-1-yl}-ethyl)benzoic acid]
0.5 to 1000	1000 to 10000	Cn1cc(-c2cnc3[nH]cc(-c4cn(Cc5cccc(C(F)(F)F)c5F)nn4)c3c2)cn1 [Compound A22, 3-[1-(2-Fluoro-3-trifluoromethylbenzyl)-1H-1,2,3-triazol-4-yl]-5-(1-methyl-1H-pyrazol-4-yl)-1H-pyrrolo[2,3-b]pyridine]
0.5 to 1000	1000 to 10000	Cn1cc(-c2cnc3[nH]cc(-c4cn(Cc5ccc(F)cc5)nn4)c3c2)cn1 [Compound A6, 3-[1-(4-Fluorobenzyl)-1H-1,2,3-triazol-4-yl]-5-(1-methyl-1H-pyrazol-4-yl)-1H-pyrrolo-[2,3-b]pyridine]
0.5 to 1000	1000 to 10000	CC(c1cccc(C(F)(F)F)c1)n1cc(-c2c[nH]c3ncc(-c4cnn(C)c4)cc23)nn1 (centres unmarked) [Compound A19, 5-(1-Methyl-1H-pyrazol-4-yl)-3-{1-[1-(3-trifluoromethylphenyl)ethyl]-1H-1,2,3-triazol-4-yl}-1H-pyrrolo[2,3-b]pyridine]
0.5 to 1000	1000 to 10000	Cn1cc(-c2cnc3[nH]cc(-c4cn(Cc5cccc(F)c5)nn4)c3c2)cn1 [Compound A5, 3-[1-(3-Fluorobenzyl)-1H-1,2,3-triazol-4-yl]-5-(1-methyl-1H-pyrazol-4-yl)-1H-pyrrolo-[2,3-b]pyridine]
	1000 to 10000	Cn1cc(-c2cnc3[nH]cc(-c4cn(Cc5ccc(OC(F)F)cc5)nn4)c3c2)cn1 [Compound A36, 3-[1-(4-Difluoromethoxybenzyl)-1H-1,2,3-triazol-4-yl]-5-(1-methyl-1H-pyrazol-4-yl)-1H-pyrrolo[2,3-b]pyridine]
1000 to 10000		Clc1ccc(Cn2cc(-c3c[nH]c4ncccc34)nn2)cc1 [Compound A2, 3-[1-(4-chlorobenzyl)-1H-1,2,3-triazol-4-yl]-1H-pyrrolo[2,3-b]-pyridine]
	1000 to 10000	COc1cccc(Cn2cc(-c3c[nH]c4ncc(-c5cnn(C)c5)cc34)nn2)c1 [Compound A34, 3-[1-(3-Methoxybenzyl)-1H-1,2,3-triazol-4-yl]-5-(1-methyl-1H-pyrazol-4-yl)-1H-pyrrolo-[2,3-b]pyridine]
	1000 to 10000	Cn1cc(-c2cnc3[nH]cc(-c4cn(Cc5ccncc5F)nn4)c3c2)cn1 [Compound A32, 3-[1-(3-Fluoropyridin-4-ylmethyl)-1H-1,2,3-triazol-4-yl]-5-(1-methyl-1H-pyrazol-4-yl)-1H-pyrrolo[2,3-b]pyridine]
0.5 to 1000	1000 to 10000	Cn1cc(-c2cnc3[nH]cc(-c4cn(CC(O)c5ccccc5)nn4)c3c2)cn1 (centres unmarked) [Compound A31, 2-{4-[5-(1-Methyl-1H-pyrazol-4-yl)-1H-pyrrolo[2,3-b]pyridin-3-yl]-1,2,3-triazol-1-yl}-1-phenylethanol]
	1000 to 10000	Cn1cc(-c2cnc3[nH]cc(-c4cn(Cc5cccc(OC(F)F)c5)nn4)c3c2)cn1 [Compound A39, 3-[1-(3-Difluoromethoxybenzyl)-1H-1,2,3-triazol-4-yl]-5-(1-methyl-1H-pyrazol-4-yl)-1H-pyrrolo[2,3-b]pyridine]
0.5 to 1000	1000 to 10000	Cn1cc(-c2cnc3[nH]cc(-c4cn(Cc5c(F)cccc5C(F)(F)F)nn4)c3c2)cn1 [Compound A24, 3-[1-(2-Fluoro-6-trifluoromethylbenzyl)-1H-1,2,3-triazol-4-yl]-5-(1-methyl-1H-pyrazol-4-yl)-1H-pyrrolo[2,3-b]pyridine]
0.5 to 1000	1000 to 10000	Cn1cc(-c2cnc3[nH]cc(-c4cn(Cc5ccc(C(F)(F)F)cc5F)nn4)c3c2)cn1 [Compound A26, 3-[1-(2-Fluoro-4-trifluoromethylbenzyl)-1H-1,2,3-triazol-4-yl]-5-(1-methyl-1H-pyrazol-4-yl)-1H-pyrrolo[2,3-b]pyridine]
0.5 to 1000		COc1ccnc2[nH]cc(-c3cn(Cc4ccccc4)nn3)c12 [Compound A15, 3-(1-benzyl-1H-1,2,3-triazol-4-yl)-4-methoxy-1H-pyrrolo[2,3-b]-pyridine]
0.5 to 1000		Cn1cc(-c2cnc3[nH]cc(-c4cn(C(CC(=O)O)c5ccccc5)nn4)c3c2)cn1 (centres unmarked) [Compound A28, 3-{4-[5-(1-Methyl-1H-pyrazol-4-yl)-1H-pyrrolo[2,3-b]pyridin-3-yl]-1,2,3-triazol-1-yl}-3-phenylpropionic acid]
0.5 to 1000		c1ccc(Cn2cc(-c3c[nH]c4ncccc34)nn2)cc1 [Compound A1, 3-(1-benzyl-1H-1,2,3-triazol-4-yl)-1H-pyrrolo[2,3-b]pyridine]
0.5 to 1000		Cc1[nH]c2ncccc2c1-c1cn(Cc2ccccc2)nn1 [Compound A3, 3-(1-Benzyl-1H-1,2,3-triazol-4-yl)-2-methyl-1H-pyrrolo[2,3-b]pyridine]
	1000 to 10000	Cn1cc(-c2cnc3[nH]cc(-c4cn(Cc5ccccc5CO)nn4)c3c2)cn1 [Compound A35, (2-{4-[5-(1-Methyl-1H-pyrazol-4-yl)-1H-pyrrolo[2,3-b]pyridin-3-yl]-1,2,3-triazol-1-ylmethyl}phenyl)methanol]
	1000 to 10000	COC(=O)c1cccc(Cn2cc(-c3c[nH]c4ncc(-c5cnn(C)c5)cc34)nn2)c1 [Compound A37, Methyl 3-{4-[5-(1-methyl-1H-pyrazol-4-yl)-1H-pyrrolo[2,3-b]pyridin-3-yl]-1,2,3-triazol-1-ylmethyl}benzoate]
0.5 to 1000	1000 to 10000	CC(c1ccc(CO)cc1)n1cc(-c2c[nH]c3ncc(-c4cnn(C)c4)cc23)nn1 (centres unmarked) [Compound A30, [4-(1-{4-[5-(1-Methyl-1H-pyrazol-4-yl)-1H-pyrrolo[2,3-b]pyridin-3-yl]-1,2,3-triazol-1-yl}-ethyl)phenyl]methanol]
